Laboratory results as given in paper PMC5198786 (ChemMedChem, 2016).
“And” between values parts separate entries of the source, which are not always exact repeats. Equal entries are not always repeated. “Also recorded” adds a separate entry of the source. Where two headings read alike, the source gives them in different places.

Experiments:
[1] = target: B. pertussis ACT (Bordetella pertussis, UniProt P0DKX7); test: cell-based; type: cell-based
[2] = target: mAC1 (Homo sapiens, UniProt Q08828); test: mAC assay, HEK293 cells stably expressing AC1; type: cell-based; details: for % of control AC1 / effect on selectively-stimulated cAMP response at AC1 (in words): 30 µM; for % of control AC1: HEK293-AC1, stimulated with 3 µM A23187, ± S.E.M.
mAC1, sequence (Q08828 whole entry): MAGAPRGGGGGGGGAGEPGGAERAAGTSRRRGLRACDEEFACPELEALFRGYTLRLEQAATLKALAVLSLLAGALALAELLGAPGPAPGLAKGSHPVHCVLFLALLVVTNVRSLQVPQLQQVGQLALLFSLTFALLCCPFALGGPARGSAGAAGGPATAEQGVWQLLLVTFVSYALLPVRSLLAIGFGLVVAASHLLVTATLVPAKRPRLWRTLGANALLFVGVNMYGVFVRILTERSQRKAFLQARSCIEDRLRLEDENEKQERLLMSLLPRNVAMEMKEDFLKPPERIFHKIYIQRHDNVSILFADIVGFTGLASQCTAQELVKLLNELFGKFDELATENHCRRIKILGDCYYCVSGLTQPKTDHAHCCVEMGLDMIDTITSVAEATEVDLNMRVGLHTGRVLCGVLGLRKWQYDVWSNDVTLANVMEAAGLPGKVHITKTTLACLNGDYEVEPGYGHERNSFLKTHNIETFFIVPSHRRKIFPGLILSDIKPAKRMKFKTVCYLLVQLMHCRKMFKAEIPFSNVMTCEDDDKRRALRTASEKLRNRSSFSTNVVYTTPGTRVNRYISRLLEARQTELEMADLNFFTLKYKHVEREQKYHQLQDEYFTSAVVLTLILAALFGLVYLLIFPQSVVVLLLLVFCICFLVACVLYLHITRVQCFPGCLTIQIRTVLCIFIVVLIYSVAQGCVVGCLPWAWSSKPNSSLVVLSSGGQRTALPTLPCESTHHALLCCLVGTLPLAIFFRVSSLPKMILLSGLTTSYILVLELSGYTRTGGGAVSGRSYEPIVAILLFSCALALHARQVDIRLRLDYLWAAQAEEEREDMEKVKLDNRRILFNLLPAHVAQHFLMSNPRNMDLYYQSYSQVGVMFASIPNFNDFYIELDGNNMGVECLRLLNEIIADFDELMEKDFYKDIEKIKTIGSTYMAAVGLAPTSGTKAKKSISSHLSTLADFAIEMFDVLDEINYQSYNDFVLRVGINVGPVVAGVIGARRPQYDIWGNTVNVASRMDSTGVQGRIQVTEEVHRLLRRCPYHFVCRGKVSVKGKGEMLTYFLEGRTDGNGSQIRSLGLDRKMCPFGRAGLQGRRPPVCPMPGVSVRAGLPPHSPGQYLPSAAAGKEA

[3] = target: mAC2 (Homo sapiens, UniProt Q08462); test: mAC assay, HEK293 cells stably expressing AC2; type: cell-based; details: for % of control AC2 / effect on selectively-stimulated cAMP response at AC2 (in words): 30 µM; for % of control AC2: HEK293-AC2, stimulated with 100 nM PMA, ± S.E.M.
mAC2, sequence (Q08462 whole entry): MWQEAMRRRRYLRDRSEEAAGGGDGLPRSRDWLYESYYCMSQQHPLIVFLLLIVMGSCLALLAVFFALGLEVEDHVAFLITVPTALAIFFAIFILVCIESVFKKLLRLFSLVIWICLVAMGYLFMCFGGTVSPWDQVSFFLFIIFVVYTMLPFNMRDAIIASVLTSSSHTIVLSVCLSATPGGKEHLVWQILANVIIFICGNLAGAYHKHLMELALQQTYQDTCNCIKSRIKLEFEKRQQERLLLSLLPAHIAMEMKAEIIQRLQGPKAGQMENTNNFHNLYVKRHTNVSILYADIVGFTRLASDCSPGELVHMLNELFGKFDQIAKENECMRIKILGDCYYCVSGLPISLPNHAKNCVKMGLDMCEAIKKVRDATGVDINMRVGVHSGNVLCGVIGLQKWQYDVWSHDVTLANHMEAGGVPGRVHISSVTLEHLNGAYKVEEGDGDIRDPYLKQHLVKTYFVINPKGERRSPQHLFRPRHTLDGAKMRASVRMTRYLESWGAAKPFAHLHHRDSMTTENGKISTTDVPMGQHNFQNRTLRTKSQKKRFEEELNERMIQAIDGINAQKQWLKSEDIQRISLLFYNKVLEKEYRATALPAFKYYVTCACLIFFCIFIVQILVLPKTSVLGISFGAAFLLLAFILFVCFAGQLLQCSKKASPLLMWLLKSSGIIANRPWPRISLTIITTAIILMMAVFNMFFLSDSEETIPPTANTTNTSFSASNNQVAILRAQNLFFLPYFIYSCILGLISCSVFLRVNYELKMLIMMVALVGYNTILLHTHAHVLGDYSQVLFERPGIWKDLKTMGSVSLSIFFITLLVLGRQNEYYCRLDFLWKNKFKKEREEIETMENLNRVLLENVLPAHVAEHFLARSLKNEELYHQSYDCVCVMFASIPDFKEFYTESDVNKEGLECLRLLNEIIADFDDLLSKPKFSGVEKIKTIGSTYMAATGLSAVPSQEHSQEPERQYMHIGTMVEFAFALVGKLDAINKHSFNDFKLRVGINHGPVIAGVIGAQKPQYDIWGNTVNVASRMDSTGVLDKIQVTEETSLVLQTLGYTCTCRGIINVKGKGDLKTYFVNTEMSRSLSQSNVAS

[4] = target: mAC5 (Homo sapiens, UniProt O95622); test: mAC assay, HEK293 cells stably expressing AC5; type: cell-based; details: for % of control AC5: 30 µM, HEK293-AC5, stimulated with 300 nM forskolin, ± S.E.M.
mAC5, sequence (O95622 whole entry): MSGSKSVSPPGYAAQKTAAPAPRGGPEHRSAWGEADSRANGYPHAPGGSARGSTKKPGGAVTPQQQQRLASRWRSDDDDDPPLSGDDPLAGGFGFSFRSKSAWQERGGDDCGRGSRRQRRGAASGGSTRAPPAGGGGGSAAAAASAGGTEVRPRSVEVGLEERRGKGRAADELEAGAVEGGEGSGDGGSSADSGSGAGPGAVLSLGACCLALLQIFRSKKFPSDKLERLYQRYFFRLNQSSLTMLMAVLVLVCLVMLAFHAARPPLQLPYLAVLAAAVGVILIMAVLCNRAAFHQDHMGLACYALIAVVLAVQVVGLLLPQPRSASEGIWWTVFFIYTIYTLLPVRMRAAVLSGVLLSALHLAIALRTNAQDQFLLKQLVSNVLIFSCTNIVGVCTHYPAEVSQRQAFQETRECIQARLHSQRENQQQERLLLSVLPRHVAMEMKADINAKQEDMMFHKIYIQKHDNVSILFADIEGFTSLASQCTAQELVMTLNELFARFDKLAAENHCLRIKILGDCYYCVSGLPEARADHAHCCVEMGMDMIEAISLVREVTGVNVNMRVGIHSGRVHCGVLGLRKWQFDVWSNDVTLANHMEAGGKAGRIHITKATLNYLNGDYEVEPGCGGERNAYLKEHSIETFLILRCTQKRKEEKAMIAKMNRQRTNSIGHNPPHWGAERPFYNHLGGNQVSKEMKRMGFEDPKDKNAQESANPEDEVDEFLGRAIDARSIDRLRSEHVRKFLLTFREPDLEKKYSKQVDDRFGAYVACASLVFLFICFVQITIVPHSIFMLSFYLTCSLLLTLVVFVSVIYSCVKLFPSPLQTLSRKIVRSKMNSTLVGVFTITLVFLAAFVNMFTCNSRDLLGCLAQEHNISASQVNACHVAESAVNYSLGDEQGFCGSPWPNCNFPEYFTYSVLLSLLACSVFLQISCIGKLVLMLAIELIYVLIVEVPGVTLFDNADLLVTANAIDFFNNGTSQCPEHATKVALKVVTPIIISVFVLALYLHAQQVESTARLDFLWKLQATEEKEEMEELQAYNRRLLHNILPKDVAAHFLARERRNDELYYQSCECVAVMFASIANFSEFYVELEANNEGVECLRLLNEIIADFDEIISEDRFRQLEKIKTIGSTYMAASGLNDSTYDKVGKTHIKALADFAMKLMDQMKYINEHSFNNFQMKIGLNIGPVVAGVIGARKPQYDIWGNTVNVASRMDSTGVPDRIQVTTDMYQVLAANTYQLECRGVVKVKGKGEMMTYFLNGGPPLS

[5] = tested on: J774A.1 cells; test: Effect on the viability of J774A.1 cells; type: cell-based, murine
[6] = target: edema factor (EF) (Bacillus anthracis, UniProt P40136); test: biochemical
edema factor (EF), sequence (P40136 whole entry, looked up): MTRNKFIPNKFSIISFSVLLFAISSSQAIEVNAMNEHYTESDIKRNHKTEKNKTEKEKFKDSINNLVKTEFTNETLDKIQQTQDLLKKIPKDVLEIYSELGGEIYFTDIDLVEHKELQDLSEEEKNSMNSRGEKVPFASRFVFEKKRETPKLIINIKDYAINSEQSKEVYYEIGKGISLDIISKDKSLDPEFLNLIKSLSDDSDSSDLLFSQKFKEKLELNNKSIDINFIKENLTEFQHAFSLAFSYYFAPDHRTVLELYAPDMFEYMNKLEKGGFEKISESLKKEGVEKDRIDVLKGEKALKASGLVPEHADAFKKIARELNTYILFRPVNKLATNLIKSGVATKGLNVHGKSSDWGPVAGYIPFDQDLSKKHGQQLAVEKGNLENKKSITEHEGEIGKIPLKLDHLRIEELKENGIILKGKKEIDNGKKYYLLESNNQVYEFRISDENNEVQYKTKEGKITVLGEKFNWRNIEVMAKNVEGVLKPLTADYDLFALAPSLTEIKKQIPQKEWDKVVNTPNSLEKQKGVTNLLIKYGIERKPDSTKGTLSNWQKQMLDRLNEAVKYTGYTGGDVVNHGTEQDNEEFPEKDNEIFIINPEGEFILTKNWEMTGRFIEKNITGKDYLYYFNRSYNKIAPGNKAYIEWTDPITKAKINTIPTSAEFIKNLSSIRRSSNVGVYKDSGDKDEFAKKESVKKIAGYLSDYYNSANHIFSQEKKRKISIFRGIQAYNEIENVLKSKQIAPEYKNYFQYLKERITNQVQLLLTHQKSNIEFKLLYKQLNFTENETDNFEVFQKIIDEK

[7] = read-out: IC50 ACT inhibition in J774A.1 cells

Row | SMILES | IC50 [1, 7] | % of control AC1 [2] [%] | % of control AC2 [3] [%] | % of control AC5 [4] [%] | other results
1 | Nc1ccc(Cl)cc1C(=O)NC(CO)Cn1cnc2c(N)ncnc21 (stereo not shown) [Compound 6] | > 15 µM | 163±34 | 161±16 | 98±14 | –
2 | Nc1ncnc2c1ncn2CC(CO)NC(=O)Nc1ccc(Cl)cc1C(=O)O (stereo not shown) [Compound 7, 2-(3-(1-(6-amino-9H-purin-9-yl)-3-hydroxypropan-2-yl)ureido)-5-chlorobenzoic acid] | – | – | – | – | IC50 [1]: > 15 µM; remaining activity at 30 µM ([2]; HEK293, read-out: % of control AC1): 178 ± 31%; remaining activity at 30 µM ([3]; HEK293, read-out: % of control AC2): 164 ± 23%; remaining activity at 30 µM ([4]; HEK293, read-out: % of control AC5): 110 ± 16%
3 | CC(C)OC(=O)[C@H](Cc1ccccc1)NP(=O)(COCC(Cn1cnc2c(N)ncnc21)NC(=O)c1cc(Cl)ccc1N)N[C@@H](Cc1ccccc1)C(=O)OC(C)C (stereo partly drawn) [Compound 14, Bis(L-phenylalanineisopropyl ester) prodrug of ((3-(6-amino-9H-purin-9yl)-2-N-(5-chloroanthraniloyl)propoxy)methyl)phosphonic acid] | > 15 µM | 118±12 | 172±34 | 121±23 | effect on selectively-stimulated cAMP response at AC1 (in words) [2]: slightly potentiated; effect on selectively-stimulated cAMP response at AC2 (in words) [3]: slightly potentiated
4 | Nc1ccc(Cl)cc1C(=O)OCC(CO)Cn1cnc2c(N)ncnc21 (stereo not shown) [Compound 20, 9-(3-O-(5-Chloroanthraniloyl)-2-(hydroxymethyl)propyl)adenine] | > 15 µM | 122±15 | 146±10 | 114±18 | –
5 | Nc1ccc(Cl)cc1C(=O)NCC(CO)Cn1cnc2c(N)ncnc21 (stereo not shown) [Compound 22, 9-(3-N-(5-Chloroanthraniloyl)-2-(hydroxymethyl)propyl)adenine] | > 15 µM | 156±23 | 149±26 | 101±5 | –
6 | CC(C)OC(=O)[C@H](Cc1ccccc1)NP(=O)(COCC(COC(=O)c1cc(Cl)ccc1N)Cn1cnc2c(N)ncnc21)N[C@@H](Cc1ccccc1)C(=O)OC(C)C (stereo partly drawn) [Compound 26, Bis(L-phenylalanineisopropyl ester) prodrug of ((3-(6-amino-9H-purin-9yl)-2-(5-chloroanthraniloyloxymethyl)propoxy)methyl)phosphonic acid] | 12 µM and 12.1 µM | 94±10 | 149±27 | 97±11 | cytotoxic effect in J774A.1 cells ([5]; 10 µM for 5h): no cytotoxic effect; also recorded: no observed cytotoxic effects; Viability ([5]; 10 µM, 5 h, versus untreated control): 110%
7 | CC(C)OC(=O)[C@H](Cc1ccccc1)NP(=O)(COCC(CNC(=O)c1cc(Cl)ccc1N)Cn1cnc2c(N)ncnc21)N[C@@H](Cc1ccccc1)C(=O)OC(C)C (stereo partly drawn) [Compound 29, Bis(L-phenylalanineisopropyl ester) prodrug of ((3-(6-amino-9H-purin-9yl)-2-(5-chloroanthraniloylaminomethyl)propoxy)methyl)phosphonic acid] | > 15 µM | 189±15 | 193±48 | 118±18 | effect on selectively-stimulated cAMP response at AC1 (in words) [2]: slightly potentiated; effect on selectively-stimulated cAMP response at AC2 (in words) [3]: slightly potentiated
8 | Nc1ncnc2c1ncn2CCOCP(=O)(O)OP(=O)(O)OP(=O)(O)O [PMEApp, Adefovir diphosphate] | – | – | – | – | IC50 [6]: 0.0115 ± 0.0026 µM
9 | Nc1ncnc2c1ncn2C1CCCO1 (stereo not shown) [SQ22536, reference compound] | – | – | 84±5 | 64±1 | –
